Assays:
[1] = system: Enterbacter ludwigii; conditions: cited from earlier work
[2] = system: dihuang; conditions: in vivo; cited from earlier work
[3] = system: S. molesta; test: Mutation induction in giant salvinia by spray, greenhouse (Example 12); format: in vivo, Salvinia molesta
Protocol: General Experimental Procedure: 4-hydroxybenzoic acid (>95%, HPLC analysis) and 3,4-dihydroxybenzoic acid (>95%) were isolated from S. molesta matter by using the method as described in Li, Wang et al. 2013. 4-Hydroxybenzoic and 3,4-dihydroxybenzoic acids were prepared as 50 mL experimental solution with NANOPURE™ water at eight concentrations, 0.015, 0.031, 0.063, 0.125, 0.25, 0.5, 1, and 2%, respectively.
In each of 17 containers (14×15 cm, 0.68 L each), nine healthy and untreated living plants of S. molesta were cultured in tap water in a greenhouse (30° C. during the day time and 20° C. at night). The nine plants included three type I plants (approximately 1 g in fresh weight per plant), three type II plants (approximately 2 g per plant), and three type III plants (approximately 4 g per plant). The plants in each container were sprayed with 10 mL NANOPURE™ water or an experimental compound at various concentrations. Plant growth, morphological variation, and survival status were documented and photographed in each treatment for six weeks after the treatment. Then any new developed plants in each container were transferred into a container with new water for 10 weeks of culture observations.

[4] = system: taro; conditions: in vivo; cited from earlier work
[5] = system: leaf vegetables; conditions: in vivo; cited from earlier work
[6] = system: rhizosphere bacterial population; conditions: cited from earlier work
[7] = system: rhizosphere fungal populations; conditions: cited from earlier work
[8] = system: F. oxysporum, F. nivale, Aspergillus flavus, and A. fumigatus; conditions: cited from earlier work
[9] = system: tobacco; conditions: from root exudates of tobacco; cited from earlier work
[10] = system: S. molesta; test: Field test in isolated ponds, plots on water surface and soils (Example 17); format: in vivo, Salvinia molesta; conditions: 0.5% 4-hydroxybenzoic acid; for % of Living Biomass/Total Biomass (mean ± s.d.), Type I and II Plants on Water Surface / % of Living Biomass/Total Biomass (mean ± s.d.), Type III Plants on Soils: 12 days
Protocol: General Experimental Procedure: The field experiments were conducted in isolated ponds in east Texas, United States. The ponds are small (each were 200-500 m^2 in size) in the hardwood forests and each was fully covered with S. molesta plants and also included least duckweed (L. minuta) and Brazillan watermeal (W. brasillensis). The area was divided by plots, each plot had 50 m^2 in area including approximately 40 m^2 of type I and II S. molesta plants on the water surface and 10 m^2 of type III S. molesta plants on soils. Each plot, except a control plot, was treated with 20 L one of the following experimental solutions by Solo 433 motorized backpack sprayer: 0.5% 4-hydroxybenzoic acid, 0.5% 4-hydroxybenzoic acid mixed with 0.25% DAWN® dish soap, 0.5% 4-hydroxybenzoic acid and 0.25% 3,4-dihydroxybenzoic acid, 0.5% 4-hydroxybenzoic acid and 0.25% 3,4-dihydroxybenzoic acid with 0.25% DAWN® dish soap, and 0.25% DAWN® dish soap. Each test condition had three replicates. 12 days after the treatments, plant growth status was photographed and the plant survival rate was measured by three 1×1 m random sample plots for floating plants on the water surface and two samples in 1×1 m random sample plots for plants on soils. Pairwise comparisons for all treatments (including Control) for living biomass were made using Tukey test at alpha=0.05, which was done using SAS (SAS 9.4).

[11] = system: Fusarium oxysporum f. sp. niveum; conditions: cited from earlier work
[12] = system: anthracnose pathogen and N-fixing bacteria in peanut; conditions: high concentrations; cited from earlier work
[13] = system: king protea explants; conditions: MS medium culture, cited from earlier work
[14] = 2% solution, 10 mL spray on nine plants (types I, II, III), six weeks
[15] = listed as 4-hydroxybenzoic acid

O=C(O)c1ccc(O)cc1 [4-Hydroxybenzoic acid]
growth of Enterbacter ludwigii [1]: stimulated the growth
effect on growth of dihuang [2]: inhibit some growth
survival and damage of S. molesta plants ([3]; 0.125% or lower concentrations, six weeks): no significant damage
survival and damage of S. molesta plants ([3]; 0.25% solution, 10 mL spray on nine plants, first week): killed all floating leaves of the small plants (type I and II) and partially injured floating leaves of the type III plants
induced new growth type ([3]; 0.25% solution, six weeks): Seven plants developed cupped floating leaves (type II)
survival and damage of S. molesta plants ([3]; 0.5% solution, 10 mL spray on nine plants): killed almost all floating leaves of the nine treated plant within a week
induced new growth type ([3]; 0.5% solution, six weeks): all other newly emerged plants from axillary buds remained as type I
survival and damage of S. molesta plants ([3]; 1% solution, 10 mL spray on nine plants (types I, II, III)): all six type I or II plants were dead without new growth within two days of the treatment
induced new growth type ([3]; 1% solution, end of second week): three small plants (type I) emerged from the axillary buds of the type III plants
survival and damage of S. molesta plants [3, 14]: died and showed no new growth
inhibitory activity on the growth of taro [4]: weaker inhibitory activity than benzoic acid
inhibitory activity in growth of some leaf vegetables [5]: weaker than adipic acid
Shannon-Wiener index, rhizosphere bacterial population [6]: decrease
Shannon-Wiener index, rhizosphere fungal populations [7]: increase
hypha growth and spore proliferation [8]: promote the hypha growth and spore proliferation
activity on growth and photosynthetic rate in tobacco [9]: some inhibitory activity
induced new growth type [10]: primarily type I and II
% of Living Biomass/Total Biomass (mean ± s.d.), Type I and II Plants on Water Surface [10]: 34.7%
% of Living Biomass/Total Biomass (mean ± s.d.), Type III Plants on Soils [10]: 14.3%
% of Living Biomass/Total Biomass (mean ± s.d.), Type I and II Plants on Water Surface [10, 15]: 34.7%
% of Living Biomass/Total Biomass (mean ± s.d.), Type III Plants on Soils [10, 15]: 14.3%
mycelial growth [11]: stimulate the mycelial growth
effect on anthracnose pathogen and N-fixing bacteria [12]: inhibited

O=C(O)c1ccc(O)c(O)c1 [3,4-dihydroxybenzoic acid]
effect on growth of dihuang [2]: inhibit some growth
mutation induction in S. molesta ([3]; 0.25, 0.5, and 1%): induced small leaf mutations
induced new growth type ([3]; 0.5% or 1%, six weeks of observation): the new plants remained as type I
survival and damage of S. molesta plants [3, 14]: killed all of the plants and no new growth was observed
effect on root mass of king protea explants ([13]; 100 mg/L): increase the root mass
effect on growth of king protea explants ([13]; 500 mg/L): inhibit growth
impacts on root growth of king protea explants (patent's reading of the cited data) [13]: no significant impacts

— patent publication US11350582B2, “Plant varieties by application of endocides” (Stephen F. Austin State University, priority 2015, dated 2022)
